The subject of one series is A549. To be noted: African green monkey.
The conditions of series [1]: rat.
The next series has as its target CHIKV nsP2 protease (Chikungunya virus, UniProt Q8JUX6). The format is biochemical.
For a further series, the target named is WEEV nsP2 protease (Western equine encephalitis virus, UniProt P13896). The format is biochemical.
The target in series [2] is T1, VEEV nsP2 protease (Venezuelan equine encephalitis virus, UniProt P27282). The experiment in a line: biochemical. Conditions: for kinact/KI: pH 7, read-out: k2/Ki.
T1 sequence (P27282 1003-1322 limits assumed): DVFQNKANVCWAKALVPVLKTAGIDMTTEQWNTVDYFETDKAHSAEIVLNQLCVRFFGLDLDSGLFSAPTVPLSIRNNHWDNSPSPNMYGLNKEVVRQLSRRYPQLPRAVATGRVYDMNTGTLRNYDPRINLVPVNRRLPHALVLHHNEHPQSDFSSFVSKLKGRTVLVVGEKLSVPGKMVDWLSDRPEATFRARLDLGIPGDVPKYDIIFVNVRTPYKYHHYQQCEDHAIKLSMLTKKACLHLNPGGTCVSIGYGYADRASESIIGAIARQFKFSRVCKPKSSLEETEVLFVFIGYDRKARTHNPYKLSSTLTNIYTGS
For another series, the system named is VEEV. The format is cell-based, Venezuelan equine encephalitis virus.
The next series relates to VEEV-Trd. The experiment in a line: microbe, parasite or virus in culture. The format is cell-based, Venezuelan equine encephalitis virus.
In series [3] the target is T1, VEEV nsP2 protease. The format is biochemical.
In another series the test system is WEEV. The format is cell-based, Western equine encephalitis virus.
Another series deals with CHIKV. The format is cell-based, Chikungunya virus.
The subject of the next series is EEEV. The format is cell-based, eastern equine encephalitis virus.
Series [4] in a line: in vitro. To be noted: PAMPA. For orientation: The PAMPA barrier holds no transporters, so it reflects passive diffusion.
In the next series the test system is VEEV-Trinidad. The experiment in a line: microbe, parasite or virus in culture. The format is cell-based. To be noted: Venezuelan equine encephalitis virus, A549.
Series [5] is described as follows: in vitro. To be noted: SD, rat, microsomes.
The next series deals with VEEV Trinidad. The format is cell-based, Venezuelan equine encephalitis virus.
Series [6] is described as follows: in vitro. To be noted: African green monkey.

≈ marks a conversion by molar mass, not a printed value. Where “and” joins values, the source holds several entries; their conditions need not be identical. Equal entries are not always repeated. Where two headings read alike, the source gives them in different places. Where only a bound is given, the exact number is not on record here.

By Ki is commonly meant the dissociation constant of the complex between target and ligand, obtained from inhibition or displacement. Usually Papp stands for a coefficient for how fast a substance crosses the barrier. Broadly, the solubility is how much of the substance goes into solution per volume. Usually EC50 stands for the concentration giving half of the maximal effect. What is called half-life is how long it takes for the measured level to halve.

Chain of WEEV nsP2 protease (P13896 1001-1320 limits assumed): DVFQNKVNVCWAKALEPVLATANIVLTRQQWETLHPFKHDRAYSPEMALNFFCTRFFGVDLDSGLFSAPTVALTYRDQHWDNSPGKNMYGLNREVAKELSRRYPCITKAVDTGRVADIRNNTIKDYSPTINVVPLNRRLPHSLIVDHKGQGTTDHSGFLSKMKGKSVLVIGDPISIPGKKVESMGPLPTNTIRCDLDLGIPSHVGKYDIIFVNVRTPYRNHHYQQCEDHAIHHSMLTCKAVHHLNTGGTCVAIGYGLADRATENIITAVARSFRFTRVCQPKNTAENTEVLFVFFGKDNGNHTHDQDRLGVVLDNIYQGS
Chain of CHIKV nsP2 protease (Q8JUX6 1004-1327 limits assumed): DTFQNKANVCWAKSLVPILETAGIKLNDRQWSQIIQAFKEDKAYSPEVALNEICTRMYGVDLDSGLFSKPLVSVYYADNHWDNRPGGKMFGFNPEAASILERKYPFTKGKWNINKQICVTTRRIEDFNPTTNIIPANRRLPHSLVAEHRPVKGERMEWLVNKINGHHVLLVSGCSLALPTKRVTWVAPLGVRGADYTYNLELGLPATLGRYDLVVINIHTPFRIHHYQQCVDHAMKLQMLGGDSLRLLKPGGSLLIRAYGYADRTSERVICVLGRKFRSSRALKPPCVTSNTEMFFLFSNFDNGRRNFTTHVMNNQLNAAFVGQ

`CCCNC(=O)[C@H]1O[C@@H]1C(=O)N[C@H](C(=O)N1CCC[C@H]1C(=O)O)[C@@H](C)CC` [CA074] returned a PAMPA of under 1 ×10⁻⁶ cm/s. The CC50 with A549 was over 100 µM. In series [1] (SD), the “Microsomal Stability t1/2” value is over 30 min and the “Rat_SD/Microsomes t1/2” value is recorded as over 30 m. The “Permeability (PAMPA_Pion_Lipid)” value (PAMPA) was under 1 ×10⁻⁶ cm/s. Besides, the “inhibition of CHIKV nsP2 protease” value at CHIKV nsP2 protease is recorded as “inhibited”. Besides, the “inhibition of WEEV nsP2 protease” value on WEEV nsP2 protease is given as “inhibited”. Also, at VEEV nsP2 protease [2], the “enhancement of inhibitor binding by Mg^2+ and Mn^2+” value is given as 3 to 6 fold; the Ki is 1200 µM and 410 µM and 210 µM and 2000 µM; the kinact/KI is 3.33 M⁻¹ s⁻¹. Besides, the k2/Ki on VEEV nsP2 protease [2] (50 mm hepes, pH 7) stood at 3.3 ± 3.3 M⁻¹ s⁻¹.
Consider `CCOC(=O)[C@H]1O[C@@H]1C(=O)N[C@@H](CC(C)C)C(=O)NCCC(C)C` [E64d], for which the “effect on titers” value is listed as “minor reductions” in the series on VEEV, “no effect” in the series with WEEV, “minor reductions” with CHIKV and “no effect” in the series on EEEV. Further, the “Rat_SD/Microsomes t1/2” value in series [1] (microsomes) was 1.5 m. Besides, the “efficacy in cell-based assays” value in the series on VEEV-Trd was “ineffective”. For the same compound, on VEEV nsP2 protease [3], the “inhibition in discontinuous assays (SDS-PAGE gels)” value was “complete inhibition”. The Average titer in the series with WEEV was 2.13 × 10^6 and 2.16 × 10^6; in the series on EEEV, 2.28 × 10^8 and 2.27 × 10^8. In “in vitro [4]”, this compound returned a Papp of 89 ×10⁻⁶ cm/s. This compound also gave a solubility in “physchem” of 24 µg/mL (≈ 70.1 µM). At VEEV nsP2 protease [2], this compound showed a Ki of 40 ± 30 µM. For the same compound, the k2 on VEEV nsP2 protease [2] (pH 7) amounted to 0.10 ± 0.06 min⁻¹. The kinact/KI at VEEV nsP2 protease [2] is 33.3 M⁻¹ s⁻¹.
Compound `CCCNC(=O)[C@H]1O[C@@H]1C(=O)N[C@H](C(=O)N1CCC[C@H]1C(=O)OC)[C@@H](C)CC` [CA074me, CA074 methyl ester] yielded a PAMPA of 33 ×10⁻⁶ cm/s. In the series with VEEV, the “efficacy in plaque assays” value is “effective”, the “reduction in plaque-forming units (PFU)” value is about 6 log and the viral titer reduction was over 5 logs. Besides, the EC50 with VEEV-Trinidad stood at 11 µM. In addition, the “Rat_SD/Microsomes t1/2” value in [1] (microsomes) was found to be 11.1 m. For the same compound, the half-life in the series “in vitro [5]” worked out at 11.1 min. Moreover, the “reduction in PFU” value in the series on WEEV was found to be 2 log. Also, the “reduction in PFU” value in the series on CHIKV was 2 log. Also, in the series on EEEV, the Average titer is 3.12 × 10^4 and 3.20 × 10^6 and 3.18 × 10^7 and 4.57 × 10^7; the “reduction in PFU” value is recorded as 2 log. Moreover, in the series with VEEV Trinidad, the “reduction in plaque forming units (PFU)” value was ~ 5 log. In addition, the Papp in the series “in vitro [4]” came out at 33 ×10⁻⁶ cm/s. In “physchem”, the solubility was determined as 22 µg/mL (≈ 55.3 µM). Besides, in the series “in vitro [6]”, the CC50 is over 100 µM. At VEEV nsP2 protease [2], this compound came in with a Ki of 1200 ± 500 µM.
Consider `CC(C)CCNC(=O)C(CC(C)C)NC(=O)C1OC1C(=O)O` (stereo not drawn) [E64c, reference compound], for which the EC50 with VEEV-Trinidad was over 100 µM. Moreover, the “Rat_SD/Microsomes t1/2” value in [1] (microsomes) was over 30 m. Moreover, the “efficacy in cell-based assays” value in the series with VEEV-Trd was “ineffective”. Moreover, the “inhibition in discontinuous assays (SDS-PAGE gels)” value against VEEV nsP2 protease [3] is on record as “partial inhibition”. The compound also displayed a Papp in the series “in vitro [4]” of under 1 ×10⁻⁶ cm/s. This compound also had a solubility in “physchem” of 33 µg/mL (≈ 105 µM). In “in vitro [6]”, this compound came in with a CC50 of over 100 µM.

For the origin of these results see article PMC10385868 (Viruses, 2023).
